Values of other authors, collected in patent publication US6916479B2, “Compositions containing an antifungal and a phospholipid” (Janssen Pharmaceutica N.V., priority 1997, dated 2005).

Conditions: prior art medicated shampoo

| SMILES | number of patients not responding to particular medicated shampoo |
| --- | --- |
| CC(=O)N1CCN(c2ccc(OCC3COC(Cn4ccnc4)(c4ccc(Cl)cc4Cl)O3)cc2)CC1 (centres unmarked) [ketoconazole] | up to 30% |
| S=[Se]=S [selenium sulfide] | up to 40% |
